According to US8513267B2, “4-anilinoquinazoline derivatives with adenosine-kinase inhibitor properties” (Universidade Estadual de Campinas-Unicamp, priority 2004, dated 2013):
Read-outs that look alike come from different tables or passages of the source. Values belong to the molecule of their own block, whether it stands above or below them.

Columns and labels:
isolated rat hearts [1] = assay: Concentration-response of quinazoline compounds on left ventricle systolic pressure and heart rate of isolated rat hearts; details: for increase in systolic pressure: according to basal absolute values of systolic pressure; for bradycardia response: decrease in heart rate compared to basal values; for Final heart rate: final value after infusions of increased concentrations; for Emax in the fractional pressor response: fractional values; for Initial heart rate: initial value before infusions of increased concentrations; for maximum pressor response (LVP): isolated rat hearts, infused concentrations 30 pM-2 μM
Text: Systolic pressure responses of the left ventricle were expressed as fractional values, while heart rate responses were expressed as absolute values. […] EC50: concentration of the drug that produces half of the maximum effect.

cardiac adenosine kinase = target: T1, cardiac adenosine kinase (Rattus norvegicus, UniProt Q64640); assay: HPLC adenosine kinase activity test with derivatized adenosine as substrate in myocardium extracts; type: biochemical; details: fluorescence detection
T1 construct: used as a substrate in myocardium extracts; from tissue; host or cells: rat myocardium (heart) extract
T1 sequence (Q64640 whole entry): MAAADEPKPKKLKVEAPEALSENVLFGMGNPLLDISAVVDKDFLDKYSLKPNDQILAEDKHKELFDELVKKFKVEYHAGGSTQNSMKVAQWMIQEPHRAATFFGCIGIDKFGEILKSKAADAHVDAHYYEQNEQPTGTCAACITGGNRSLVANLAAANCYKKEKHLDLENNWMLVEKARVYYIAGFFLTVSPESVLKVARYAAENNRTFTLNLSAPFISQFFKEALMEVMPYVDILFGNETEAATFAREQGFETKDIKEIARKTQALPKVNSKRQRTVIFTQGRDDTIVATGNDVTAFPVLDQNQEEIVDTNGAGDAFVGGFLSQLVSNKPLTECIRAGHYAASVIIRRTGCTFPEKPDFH

[2] = system: myocardium of isolated rat hearts; assay: Adenosine dosage (HPLC) in the myocardium of isolated rat hearts
Text: We conducted adenosine dosages in the myocardium of isolated rat hearts with compounds 4d (Example 7) and 4i (Example 17). Chromatograms obtained through HPLC experiments in rat myocardium extracts for dosage of tissue adenosine and AMP are presented in FIG. 6.

isolated rat hearts [3] = assay: Heart rate of isolated rat hearts perfused with HEPES buffer with 1 nM 4i with or without 8-PT
Protocol: In FIG. 14, we present diagrams that represent heart rates of isolated rat hearts perfused with pure HEPES buffer (control), or HEPES buffer with 1 nM of 4i (Example 17), or HEPES buffer with 1 nM of 4i (Example 17) plus 1 μM of unspecific inhibitor of adenosine receptors, 8-PT (4i+8-PT). […] However, perfusion of hearts with 4i (Example 17) and 8-PT annulled bradycardia caused by 4i (Example 17), confirming our hypothesis that the quinazoline compound could be acting in a direct or indirect way on adenosine receptors. In Table 5, we present heart rate values (bpm) from individual experiments of isolated hearts perfused with pure HEPES buffer (control), HEPES buffer with 1 nM of 4i (Example 17), or HEPES buffer with 1 nM of 4i (Example 17) and […] of 8-PT (mean±S.E.M.).

isolated hearts [4] = assay: Isolated hearts perfused with propanolol, diltiazem or reduced calcium concentration; design: species or system rat; details: propanolol or diltiazem blocking, or decreased calcium in perfusion buffer
Text: There was also a negative correlation between levels of ventricular pressure and heart rate in isolated hearts treated with increased doses of compound 4i (Example 17) in the presence of blockers like propanolol and diltiazem, and reduced concentrations of calcium in the perfusion buffer. In FIG. 11, we presented diagrams of the correlation between increase in systolic pressure and decrease in heart rate in isolated hearts submitted to injections (bolus) of 4i (Example 17) perfused with propanolol, diltiazem and with reduction of the calcium concentration in the perfusion buffer. Data are presented as mean±S.E.M.
Results obtained with 4i (Example 17) and other quinazoline compounds point out that the main functional effect of these compounds on isolated rat hearts is bradycardia, and the pressor effect depends on bradycardia, and thus is a consequence of particularities of the preparation used (i.e., isolated heart) and not a direct effect. Because the bradycardia response was not altered by propanolol or diltiazem blocking, or even by decrease in calcium concentration in the perfusion buffer, our hypothesis is that this effect of quinazoline compounds depends on a direct effect of them on pacemaker cells, or even on an indirect effect through secretion of autocrine or paracrine compounds. […]

isolated rat hearts [5] = assay: Concentration-response in isolated heart with heart rate held constant by electrical stimulator; details: heart rate held constant by electrical stimulator (FIG. 12)
Text: In order to confirm our hypothesis that pressor response of compound 4i depends on bradycardia and not on a direct action of 4i in the inotropism of isolated rat hearts, we conducted experiments where heart rate was held constant during infusion of increased concentrations of 4i (Example 17), through the action of an electrical stimulator. In FIG. 12 we represent the concentration-response relationship to 4i (Example 17) in isolated heart submitted to electrical stimulus.

isolated hearts [6] = assay: Concentration-effect experiments with adenosine with and without 8-PT in isolated hearts; design: species or system rat; details: for EC50: Rattus norvegicus
Protocol: In Table 3, we present values of Emax, EC50 (nM) and LogEC50 in the fractional pressor response to infusion of increased concentrations of adenosine in isolated hearts perfused with pure HEPES buffer, or with HEPES buffer with 8-PT (mean±S.E.M.).
Both effects were altered by the action of the unspecific adenosine receptor inhibitor, 8-PT (1 μM), added to the perfusion buffer. According to results presented in FIG. 13, the increase in systolic pressure in response to infusion of increased concentrations of adenosine, both in control hearts as in those treated with the unspecific adenosine inhibitor, was almost the same. […] Concerning heart rate, the adenosine bradycardia effect was reduced when the inhibitor was present, showing a decrease of about 15% if compared to basal values of Table 4, where we present initial and final heart rate values (bpm) in the response to infusion of increased concentrations of adenosine in isolated hearts perfused with pure HEPES buffer and HEPES buffer with 8-PT (mean±S.E.M.).

[7] = Rattus norvegicus, mean±S.E.M., given as negative log values, read-out: LogEC50 in the fractional pressor response (converted)
[8] = Rattus norvegicus, mean±S.E.M., infusion of increased concentrations, read-out: EC50 in the fractional pressor response
[9] = mean±S.E.M., infusion of increased concentrations, hydrochloride

melting point: 266 to 269 °C
SMILES: COc1cc2ncnc(Nc3ccc(I)cc3)c2cc1OC.Cl

melting point: 227 to 229 °C
SMILES: COc1cc2ncnc(Nc3ccc(C)cc3)c2cc1OC.Cl

melting point: 219 to 221 °C
SMILES: COc1cc2ncnc(Nc3cccc(C(C)=O)c3)c2cc1OC.Cl

melting point: 218 to 220 °C
SMILES: COc1cc2ncnc(Nc3ccc(C(C)=O)cc3)c2cc1OC.Cl

SMILES: COc1cc2ncnc(Cl)c2cc1OC [3a, 4-chloro-6,7-dimethoxyquinazoline]
EC50 (isolated rat hearts [1]; [7]): 0.631 nM
EC50 (isolated rat hearts [1]; [8]): 0.6 ± 0.5 nM
increase in systolic pressure (isolated rat hearts [1]): ~30%
bradycardia response (isolated rat hearts [1]): ~29%
Final heart rate (isolated rat hearts [1]; mean±S.E.M.): 173 ± 1 bpm
Emax in the fractional pressor response (isolated rat hearts [1]; mean±S.E.M., infusion of increased concentrations): 0.6±0.2
Initial heart rate (isolated rat hearts [1]; mean±S.E.M.): 242 ± 5 bpm

adenosine kinase inhibition (cardiac adenosine kinase): adenosine kinase inhibitors
SMILES: COc1cc2ncnc(Nc3cccc(Br)c3)c2cc1OC.Cl [4d, 6,7-Dimethoxy-4-(3′-bromoanilino)quinazoline hydrochloride]
EC50 (isolated rat hearts [1]; [7]): 6.31 nM
EC50 (isolated rat hearts [1]; [8]): 6 ± 1.2 nM
increase in systolic pressure (isolated rat hearts [1]): ~14%
bradycardia response (isolated rat hearts [1]): ~25%
Final heart rate (isolated rat hearts [1]; mean±S.E.M.): 164 ± 3 bpm
Emax in the fractional pressor response (isolated rat hearts [1]; [9]): 0.3±0.1
Initial heart rate (isolated rat hearts [1]; mean±S.E.M.): 219 ± 12 bpm
maximum pressor response (LVP) (isolated rat hearts [1]): 8±4 mmHg
effect on amount of myocardial adenosine ([2]; chromatograms of rat myocardium extracts (FIG. 6)): increased substantially
myocardial adenosine value ([2]; hearts treated with compound, average, basal value 0.48): 0.75 nmol/mg of protein

adenosine kinase inhibition (cardiac adenosine kinase): adenosine kinase inhibitors
SMILES: COc1cc2ncnc(Nc3cccc(N(C)C)c3)c2cc1OC.Cl [4i, 6,7-Dimethoxy-4-(3′-N′,N′-dimethylaminoanilino)quinazoline hydrochloride]
increase in systolic pressure (isolated rat hearts [1]): approximately 35%
bradycardia response (isolated rat hearts [1]): approximately 24%
Final heart rate (isolated rat hearts [1]; mean±S.E.M.): 173 ± 8 bpm
Emax in the fractional pressor response (isolated rat hearts [1]; [9]): 0.9±0.2
Initial heart rate (isolated rat hearts [1]; mean±S.E.M.): 228 ± 7 bpm
maximum pressor response (LVP) (isolated rat hearts [1]): 27±3 mmHg
LogEC50 in the fractional pressor response (isolated rat hearts [1]; mean±S.E.M., given as negative log values): −9.9 ± 0.3
EC50 (isolated rat hearts [1]; mean±S.E.M., infusion of increased concentrations, read-out: EC50 in the fractional pressor response): 0.1 ± 0.03 nM
reduction of heart rate (isolated rat hearts [3]; 1 nM 4i, compared to control hearts): approximately 17%
Heart Rate (isolated rat hearts [3]; HEPES buffer with 1 nM 4i, control 233 ± 7): 194 ± 7 bpm
bradycardia response under blocking (isolated hearts [4]): not altered
pressor response with heart rate controlled (isolated rat hearts [5]): almost annulled

EC50 (isolated hearts [6]; HEPES buffer with 8-PT (1 μM), read-out: EC50 pressor response): 30 ± 19 nM
EC50 (isolated hearts [6]; pure HEPES buffer, given as negative log values, read-out: LogEC50 in the fractional pressor response (converted)): 6.31 nM
EC50 (isolated hearts [6]; pure HEPES buffer, mean±S.E.M., read-out: EC50 pressor response): 7 ± 1.4 nM
EC50 (isolated hearts [6]; pure HEPES buffer, read-out: EC50 bradycardia response): 1.8 ± 1.4 nM
SMILES: Nc1ncnc2c1ncn2[C@@H]1O[C@H](CO)[C@@H](O)[C@H]1O [Adenosine, adenosine]
increase in ventricular pressure (isolated hearts [6]; 1 μM adenosine (maximum response)): 16±2 mmHg
decrease in heart rate (isolated hearts [6]; 8-PT (1 μM) present, compared to basal values): about 15%
reduction in heart rate (isolated hearts [6]; compared to absolute basal values, 1 μM adenosine (maximum response)): approximately 19%
Final heart rate (isolated hearts [6]; pure HEPES buffer, final value after increased concentrations): 185 ± 2 bpm
Initial heart rate (isolated hearts [6]; pure HEPES buffer, initial value): 228 ± 2 bpm
Emax in the fractional pressor response (isolated hearts [6]; pure HEPES buffer, mean±S.E.M.): 0.93 ± 0.05
